Converted amounts (≈) assume the structure as drawn. Like-named read-outs stand apart in the source and are kept apart here.
Assays:
Test in all cases: Minimum inhibitory concentration, conventional tube dilution method
Assay type in all cases: cell-based
Candida albicans = conditions: fungus, tube dilution, 37 degrees, 24 hours, between 1 and 6 strains, mg/100 cc, decimal comma, read-out: Minimal Inhibitory Concentration, Cand. Alb.
Text: (§1) The activity of some of the new nitrofuryl quinoline derivatives of the present invention is exemplified in Table 1 against a gram-positive (Staph. aureus), a gram-negative (Salmonella) bacterium and a fungus (Candida albicans). Table 1 indicates the minimum inhibitory concentration of the compound under reference in mg/100 cc required in order to inhibit the growth between 1 and 6 strains of each type. The measurements have been carried out by the conventional tube dilution method at 37 degrees after 24 hours.

Staph. aureus = conditions: Staphylococcus aureus; gram-positive; tube dilution, 37 degrees, 24 hours; between 1 and 6 strains; mg/100 cc; decimal comma; read-out: Minimal Inhibitory Concentration, Staph. aureus
Text: as §1

Salmonella = conditions: read-out: Minimal Inhibitory Concentration, Salm.
Text: as §1

[1] = gram-negative, tube dilution, 37 degrees, 24 hours, between 1 and 6 strains, mg/100 cc, decimal comma

Row | Compound | MIC (Candida albicans) [µg/mL] | MIC (Staph. aureus) [µg/mL] | MIC (Salmonella; [1]) [µg/mL] | MIC (Salmonella; 24 h) [µg/mL]
1 | CCc1cc(-c2ccc([N+](=O)[O-])o2)c2ccc(OC)cc2n1 [C2 H5 H 5NF H H OCH3 H] | 10 (≈ 33.5 µM) | 0.01 to 0.5 (≈ 0.0335 to 1.68 µM) | 25 (≈ 83.8 µM) | –
2 | CCc1cc(-c2ccc([N+](=O)[O-])o2)c2ccc(O)cc2n1 [C2 H5 H 5NF H H OH H] | 50 (≈ 176 µM) | 0.1 to 0.5 (≈ 0.352 to 1.76 µM) | 5 (≈ 17.6 µM) | –
3 | CCc1ccc2nc(CC)cc(-c3ccc([N+](=O)[O-])o3)c2c1 [C2 H5 H NF H C2 H5 H H, 2-ethyl-4-[2'-(5'-nitrofuryl)]-6-ethyl quinoline] | > 50 | – | > 10 | –
4 | CCc1cc(-c2ccc([N+](=O)[O-])o2)c2cc(C)ccc2n1 [C2 H5 H NF H CH3 H H, 2-ethyl-4-[2'-(5'-nitrofuryl)]-6-methyl quinoline] | < 5 | – | – | > 10
5 | CCc1cc(-c2ccc([N+](=O)[O-])o2)c2ccc(C)cc2n1 [C2 H5 H NF H H CH3 H] | > 50 | 5 (≈ 17.7 µM) | > 50 | –
6 | CCc1cc(-c2ccc([N+](=O)[O-])o2)c2ccccc2n1 [C2 H5 H NF H H H H, 2-ethyl-4-[2'-(5'-nitrofuryl)]quinoline] | 5 (≈ 18.6 µM) | 0.1 (≈ 0.373 µM) | > 50 | –
7 | CCCc1cc(-c2ccc([N+](=O)[O-])o2)c2cc(C)ccc2n1 [C3 H7 H NF H CH3 H H] | 5 to 10 (≈ 16.9 to 33.7 µM) | 1 (≈ 3.37 µM) | – | > 50
8 | CCCc1cc(-c2ccc([N+](=O)[O-])o2)c2ccc(C)cc2n1 [C3 H7 H NF H H CH 3 H] | > 50 | 5 (≈ 16.9 µM) | > 50 | –
9 | Cc1ccc2nc(C(Br)(Br)Br)cc(-c3ccc([N+](=O)[O-])o3)c2c1 [CBr3 H NF H CH3 H H, 2-tribromomethyl-4-[2'-(5'-nitrofuryl)]-6-methyl quinoline] | > 50 | 1 (≈ 1.98 µM) | > 25 | –
10 | O=[N+]([O-])c1ccc(-c2cc(C(Br)(Br)Br)nc3ccccc23)o1 [CBr3 H NF H H H H, 2-tribromomethyl-4-[2'-(5'-nitrofuryl)]quinoline] | 30 to 50 (≈ 61.1 to 102 µM) | 0.5 (≈ 1.02 µM) | 10 (≈ 20.4 µM) | –
11 | CC(=O)OCc1cc(-c2ccc([N+](=O)[O-])o2)c2ccccc2n1 [CH2 OCOCH3 H NF H H H H, 2-acetoxymethyl-4-[2'-(5'-nitrofuryl)]quinoline] | 5 (≈ 16 µM) | – | > 50 | –
12 | CC(=O)OCc1cc(-c2ccc([N+](=O)[O-])o2)c2ccc(OC(C)=O)cc2n1 [CH2 OCOCH3 H NF H H OCOCH3 H, 2-acetoxymethyl-4-[2'-(5'-nitrofuryl)]-7-acetoxy quinoline] | 50 to 100 (≈ 135 to 270 µM) | – | 10 to 25 (≈ 27 to 67.5 µM) | –
13 | O=[N+]([O-])c1ccc(-c2cc(CO)nc3ccccc23)o1 [CH2 OH H NF H H H H, 2-Hydroxymethyl-4-[2'-(5'-nitrofuryl)]quinoline] | 5 (≈ 18.5 µM) | 0.1 (≈ 0.37 µM) | 5 to 10 (≈ 18.5 to 37 µM) | –
14 | CCCCOc1ccc2c(-c3ccc([N+](=O)[O-])o3)cc(C)nc2c1 [CH3 H 5NF H H OC4 H9 H, 2-methyl-4-[2'-(5'-nitrofuryl)]-7-n-butoxy quinoline] | > 50 | 0.5 (≈ 1.53 µM) | – | –
15 | Cc1cc(-c2ccc([N+](=O)[O-])o2)c2c(C)ccc(N)c2n1 [CH3 H NF CH3 H H NH2] | > 50 | 5 (≈ 17.6 µM) | > 50 | –
16 | CCc1ccc2nc(C)cc(-c3ccc([N+](=O)[O-])o3)c2c1 [CH3 H NF H C2 H5 H H, 2-methyl-4-[2'-(5'-nitrofuryl)]-6-ethyl quinoline] | 25 (≈ 88.6 µM) | 0.1 (≈ 0.354 µM) | 25 (≈ 88.6 µM) | –
17 | Cc1cc(C)c2nc(C)cc(-c3ccc([N+](=O)[O-])o3)c2c1 [CH3 H NF H CH3 H CH3, 2,6,8-trimethyl-4-[2'-(5'-nitrofuryl)]quinoline] | > 50 | 0.05 to 0.1 (≈ 0.177 to 0.354 µM) | > 50 | –
18 | Cc1ccc2nc(C)cc(-c3ccc([N+](=O)[O-])o3)c2c1 [CH3 H NF H CH3 H H, 2-methyl-4-[2'-(5'-nitrofuryl)]-6-methyl quinoline] | 5 (≈ 18.6 µM) | 0.1 (≈ 0.373 µM) | 5 (≈ 18.6 µM) | –
19 | Cc1cc(-c2ccc([N+](=O)[O-])o2)c2cc(C(=O)O)c(O)cc2n1 [CH3 H NF H COOH OH H] | > 50 | 10 (≈ 31.8 µM) | > 50 | –
20 | CCc1cccc2c(-c3ccc([N+](=O)[O-])o3)cc(C)nc12 [CH3 H NF H H H C2 H5] | 100 (≈ 354 µM) | – | > 50 | –
21 | Cc1cc(-c2ccc([N+](=O)[O-])o2)c2ccc(N)c(C)c2n1 [CH3 H NF H H NH2 CH3] | 5 (≈ 17.6 µM) | – | – | 1 to 5 (≈ 3.53 to 17.6 µM)
22 | COc1ccc2c(-c3ccc([N+](=O)[O-])o3)cc(C)nc2c1 [CH3 H NF H H OCH3 H, 2-methyl-4-[2'-(5'-nitrofuryl)]-7-methoxy quinoline] | 5 (≈ 17.6 µM) | – | 10 (≈ 35.2 µM) | –
23 | CC(=O)Oc1ccc2c(-c3ccc([N+](=O)[O-])o3)cc(C)nc2c1 [CH3 H NF H H OCOCH3 H] | 10 (≈ 32 µM) | – | 2 (≈ 6.4 µM) | –
24 | COc1cc2nc(C)cc(-c3ccc([N+](=O)[O-])o3)c2cc1N [CH3 H NF H NH2 OCH3 H, 2-methyl-4-[2'-(5'-nitrofuryl)]-6-amino-7-methoxy-quinoline] | 5 (≈ 16.7 µM) | – | 1 to 5 (≈ 3.34 to 16.7 µM) | –

Row | Compound | MIC (Candida albicans) [µg/mL] | MIC (Staph. aureus) [µg/mL] | MIC (Salmonella; [1]) [µg/mL] | MIC (Salmonella; 24 h) [µg/mL]
25 | COc1cc2nc(C)cc(-c3ccc([N+](=O)[O-])o3)c2cc1NC(C)=O [CH3 H NF H NHCOCH3 OCH3 H, 2-methyl-4-[2'-(5'-nitrofuryl)]-6-acetylamino-7-methoxy-quinoline] | 50 (≈ 146 µM) | – | > 50 | –
26 | CCc1ccc2nc(C(C)C)cc(-c3ccc([N+](=O)[O-])o3)c2c1 [CH(CH3)2 H 5NF H C2 H5 H H, 2-isopropyl-4-[2'-(5'-nitrofuryl)]-6-ethyl quinoline] | 50 (≈ 161 µM) | 0.5 (≈ 1.61 µM) | – | –
27 | O=[N+]([O-])c1ccc(-c2cc(C=NO)nc3ccccc23)o1 [CHNOH H NF H H H H, 4-[2'-(5'-nitrofuryl)]quinoline-2-carboxaldehyde oxime] | 10 (≈ 35.3 µM) | – | 5 (≈ 17.7 µM) | –
28 | CCOc1ccc2c(-c3ccc([N+](=O)[O-])o3)cc(C=NO)nc2c1 [CHNOH H NF H H OC2 H5 H] | 50 (≈ 153 µM) | – | > 50 | –
29 | CC(=O)c1cc(-c2ccc([N+](=O)[O-])o2)c2ccccc2n1 [COCH3 H NF H H H H, 4-[2'-(5'-nitrofuryl)]quinoline-2-methyl ketone] | > 50 | – | > 50 | –
30 | CCOC(=O)c1cc(-c2ccc([N+](=O)[O-])o2)c2ccccc2n1 [COOC2 H5 H NF H H H H, 2-carbethoxy-4-[2'-(5'-nitrofuryl)]quinoline] | > 50 | – | > 50 | –
31 | CCc1cc(-c2ccc([N+](=O)[O-])o2)c2cc(C)ccc2[n+]1[O-] [O C2 H5 H NF H CH3 H H] | < 5 | 0.1 (≈ 0.335 µM) | – | –
32 | CCc1cc(-c2ccc([N+](=O)[O-])o2)c2ccc(OC)cc2[n+]1[O-] [O C2 H5 H NF H H OCH3 H] | > 50 | 0.01 to 0.5 (≈ 0.0318 to 1.59 µM) | – | –
33 | CCc1cc(-c2ccc([N+](=O)[O-])o2)c2ccc(O)cc2[n+]1[O-] [O C2 H5 H NF H H OH H] | 25 (≈ 83.3 µM) | – | 5 (≈ 16.7 µM) | –
34 | Cc1ccc2c(-c3ccc([N+](=O)[O-])o3)cc(C)[n+]([O-])c2c1 [O CH3 H NF H H CH3 H] | 5 (≈ 17.6 µM) | – | > 50 | –
35 | CCCCOc1ccc2c(-c3ccc([N+](=O)[O-])o3)cc(C)[n+]([O-])c2c1 [O CH3 H NF H H OC4 H9 H] | > 10 | 0.5 to 1 (≈ 1.46 to 2.92 µM) | – | –
36 | CC(=O)Oc1ccc2c(-c3ccc([N+](=O)[O-])o3)cc(C)[n+]([O-])c2c1 [O CH3 H NF H H OCOCH3 H] | 50 (≈ 152 µM) | – | 5 (≈ 15.2 µM) | –
37 | Cc1cc(-c2ccc([N+](=O)[O-])o2)c2ccc(O)cc2[n+]1[O-] [O CH3 H NF H H OH H, 2-Methyl-4-[2'-(5'-nitrofuryl)]-7-hydroxy quinoline N-oxide] | 100 (≈ 349 µM) | – | 5 to 10 (≈ 17.5 to 34.9 µM) | –
38 | COc1cc2c(cc1N)c(-c1ccc([N+](=O)[O-])o1)cc(C)[n+]2[O-] [O CH3 H NF H NH2 OCH3 H] | > 50 | – | 50 (≈ 159 µM) | –
39 | COc1cc2c(cc1NC(C)=O)c(-c1ccc([N+](=O)[O-])o1)cc(C)[n+]2[O-] [O CH3 H NF H NHCOCH3 OCH3 H] | 50 (≈ 140 µM) | – | 10 to 25 (≈ 28 to 70 µM) | –
40 | COc1cc2c(-c3ccc([N+](=O)[O-])o3)cc(C)[n+]([O-])c2cc1OC [O CH3 H NF H OCH3 OCH3 H] | > 50 | – | > 50 | –
41 | O=[N+]([O-])c1ccc(-c2cc(C=NO)[n+]([O-])c3ccccc23)o1 [O CHNOH H NF H H H H] | 0.5 (≈ 1.67 µM) | – | 1 to 5 (≈ 3.34 to 16.7 µM) | –
42 | Cc1ccc2c(-c3ccc([N+](=O)[O-])o3)cc(C(=O)O)[n+]([O-])c2c1 [O COOH H NF H H CH3 H, 2-carboxy-4-[2'-(5'-nitrofuryl)]-7-methyl quinoline N-oxide] | 50 (≈ 159 µM) | 0.5 (≈ 1.59 µM) | – | –
43 | O=[N+]([O-])c1ccc(-c2ccc3ccccc3[n+]2[O-])o1 [O NF H H H H H H] | < 5 | 0.5 (≈ 1.95 µM) | – | –
44 | CNN=Cc1cc(-c2ccc([N+](=O)[O-])o2)c2ccccc2n1 [drawing 7 H NF H H H H] | 10 to 25 (≈ 33.8 to 84.4 µM) | – | 1 to 5 (≈ 3.38 to 16.9 µM) | –
45 | NC(=O)NN=Cc1cc(-c2ccc([N+](=O)[O-])o2)c2ccccc2n1 [drawing 8 H NF H H H H] | 25 to 50 (≈ 76.9 to 154 µM) | – | 5 (≈ 15.4 µM) | –
46 | O=[N+]([O-])c1ccc(-c2cc(C=NNCCO)nc3ccccc23)o1 [drawing 9 H NF H H H H] | 25 (≈ 76.6 µM) | – | 5 (≈ 15.3 µM) | –
47 | O=C1OCCN1N=Cc1cc(-c2ccc([N+](=O)[O-])o2)c2ccccc2n1 [drawing 10 H NF H H H H] | 5 (≈ 14.2 µM) | 0.1 to 0.5 (≈ 0.284 to 1.42 µM) | – | –

Source: patent US4224448A, “2'-(5'-Nitrofuryl) substituted quinolines” (priority 1966, dated 1980)
